The test system of one test is KMS.12.BM cells. Briefly: KMS.12.BM cell viability assay (Cell Titer-GLO, ATP quantitation). Type of test: cell-based. The note with it: Homo sapiens, 72 h, 3 days, concentration required for 50% cell death, read-out: KMS cellular IC50. In outline: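 Human myeloma KMS.12.BM cells, 5000 cells/well in RPMI with 10% FBS, were exposed to a compound concentration range for 3 days. Viability was read by Cell Titer-GLO ATP luminescence relative to untreated cells; IC50 is the concentration giving 50% cell death.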
On the technique in general: In ATP-based viability assays light output follows the ATP content of the culture.

In the next test the target is BRD4-BD1 (Homo sapiens (Human), UniProt O60885). Briefly: BRD4 AlphaScreen assay, BRD4-BD1. Type of test: binding. Conditions: H4Ac4 peptide, 75 min, room temperature, read-out: BRD4 BD-1 enzyme IC50. In outline:
(§1)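 AlphaScreen read after 75 min dark incubation at room temperature, inhibitors serially diluted in DMSO and added before other components. IC50 from fit of percent control activity versus log inhibitor concentration.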
In general terms: In Alpha technology, singlet oxygen from a donor bead excites a nearby acceptor bead.

A further test relates to C-myc. Briefly: KMS.12.BM C-myc ELISA assay. Conditions: Homo sapiens; KMS.12.BM cells, 2 hours, concentration required for 50% C-myc inhibition. Type of test: cell-based. As to the method:
KMS.12.BM cell line (human myeloma) was purchased from JCRB (Osaka, Japan) and maintained in RPMI with 10% FBS culture medium. To measure the C-myc inhibitory activity of the compounds, the KMS.12.BM cells are plated in the RPMI culture medium at 75000 cells/well/per 200 μL into a 96-well flat bottom polystyrene tissue culture plate (Corning through VWR, NJ), in the presence or absence of a concentration range of test compounds. After 2 hours, cell are pelleted and lysed with Cell Extraction Buffer (BioSource, Carlsbad, Calif.) in the presence of protease inhibitors (Life Technologies, Grand Island, N.Y. and Sigma, St Louis, Mo.). Clarified lyses are tested in a C-myc commercial ELISA (Life Technologies, Grand Island, N.Y.). Compound inhibition is determined relative to cells cultured with no drug and the IC50 is reported as the compound concentration required for 50% C-myc inhibition. IC50 data for the Examples is presented in Table 10 as determined by Assay C1.

The target in the next test is BRD4-BD2 (Homo sapiens (Human), UniProt O60885). Briefly: BRD4 AlphaScreen assay, BRD4-BD2. The test is classed as binding. Conditions: H4Ac4 peptide, 75 min, room temperature, read-out: BRD4 BD-2 enzyme IC50. In a few lines:
as §1

As usually defined, the IC50 is the concentration at which inhibition is half-maximal. On to `Cn1cc(-c2ccc3c(ncn3CC(=O)N3CCOCC3)c2Oc2ccc(F)cc2F)c2cc[nH]c2c1=O` [Example 31, 4-[4-(2,4-difluorophenoxy)-1-(2-morpholin-4-yl-2-oxoethyl)-1H-benzimidazol-5-yl]-6-methyl-1,6-dihydro-7H-pyrrolo[2,3-c]pyridin-7-one], for which the IC50 in the test with KMS.12.BM cells was at most 1 µM; at BRD4-BD1, under 0.1 µM; in the test on C-myc, at most 1 µM; on BRD4-BD2, under 0.1 µM.

Regarding `COc1c(-c2cn(C)c(=O)c3[nH]ccc23)ccc2c1[nH]c(=O)n2C` [Example 32, 4-Methoxy-1-methyl-5-(6-methyl-7-oxo-6,7-dihydro-1H-pyrrolo[2,3-c]pyridin-4-yl)-1,3-dihydro-2H-benzimidazol-2-one], the concentration for half-maximal inhibition (IC50) in the test with KMS.12.BM cells was at most 1 µM; at BRD4-BD1 it was 0.1 to 1 µM; in the test on C-myc, at most 1 µM; on BRD4-BD2 it was under 0.1 µM.

As for `CN(C)C(=O)Cn1cnc2c(Oc3ccc(F)cc3F)c(-c3cn(C)c(=O)c4[nH]ccc34)ccc21` [Example 34, 2-[4-(2,4-difluorophenoxy)-5-(6-methyl-7-oxo-6,7-dihydro-1H-pyrrolo[2,3-c]pyridin-4-yl)-1H-benzimidazol-1-yl]-N,N-dimethylacetamide], the IC50 was at most 1 µM with KMS.12.BM cells, under 0.1 µM at BRD4-BD1, at most 1 µM with C-myc and under 0.1 µM on BRD4-BD2.

As to `CNC(=O)Cn1cnc2c(Oc3ccc(F)cc3F)c(-c3cn(C)c(=O)c4[nH]ccc34)ccc21` [Example 36, 2-[4-(2,4-difluorophenoxy)-5-(6-methyl-7-oxo-6,7-dihydro-1H-pyrrolo[2,3-c]pyridin-4-yl)-1H-benzimidazol-1-yl]-N-methylacetamide], the IC50 with KMS.12.BM cells was at most 1 µM; at BRD4-BD1 it was under 0.1 µM; in the test with C-myc, at most 1 µM; at BRD4-BD2, under 0.1 µM.

Take `Cn1cc(-c2ccc3c([nH]c(=O)n3C)c2OCC2CCC2)c2cc[nH]c2c1=O` [Example 37, 4-(Cyclobutylmethoxy)-1-methyl-5-(6-methyl-7-oxo-6,7-dihydro-1H-pyrrolo[2,3-c]pyridin-4-yl)-1,3-dihydro-2H-benzimidazol-2-one]: the half-inhibitory concentration (IC50) in the test with KMS.12.BM cells is at most 1 µM; on BRD4-BD1, under 0.1 µM; in the test with C-myc, at most 1 µM; at BRD4-BD2, under 0.1 µM.

In the case of `Cn1cc(-c2ccc3c([nH]c(=O)n3C)c2Oc2ccccc2)c2cc[nH]c2c1=O` [Example 38, 1-Methyl-5-(6-methyl-7-oxo-6,7-dihydro-1H-pyrrolo[2,3-c]pyridin-4-yl)-4-phenoxy-1,3-dihydro-2H-benzimidazol-2-one], the half-maximal inhibitory concentration (IC50) in the test with KMS.12.BM cells was at most 1 µM; on BRD4-BD1, under 0.1 µM; with C-myc, at most 1 µM; at BRD4-BD2 it was under 0.1 µM.

On to `Cn1cc(-c2ccc3c([nH]c(=O)n3C)c2Oc2ccccc2F)c2cc[nH]c2c1=O` [Example 39, 4-(2-Fluorophenoxy)-1-methyl-5-(6-methyl-7-oxo-6,7-dihydro-1H-pyrrolo[2,3-c]pyridin-4-yl)-1,3-dihydro-2H-benzimidazol-2-one], for which the half-inhibitory concentration (IC50) in the test on KMS.12.BM cells was at most 1 µM; at BRD4-BD1, under 0.1 µM; in the test on C-myc, at most 1 µM; on BRD4-BD2, under 0.1 µM.

As to `Cn1cc(-c2ccc3c([nH]c(=O)n3C)c2Oc2cccc(F)c2)c2cc[nH]c2c1=O` [Example 40, 4-(3-Fluorophenoxy)-1-methyl-5-(6-methyl-7-oxo-6,7-dihydro-1H-pyrrolo[2,3-c]pyridin-4-yl)-1,3-dihydro-2H-benzimidazol-2-one], the IC50 was at most 1 µM in the test on KMS.12.BM cells, under 0.1 µM on BRD4-BD1, at most 1 µM in the test with C-myc and under 0.1 µM at BRD4-BD2.

`Cn1cc(-c2ccc3c([nH]c(=O)n3C)c2Oc2ccc(F)cc2)c2cc[nH]c2c1=O` [Example 41, 4-(4-Fluorophenoxy)-1-methyl-5-(6-methyl-7-oxo-6,7-dihydro-1H-pyrrolo[2,3-c]pyridin-4-yl)-1,3-dihydro-2H-benzimidazol-2-one]: the half-inhibitory concentration (IC50) in the test with KMS.12.BM cells was at most 1 µM; on BRD4-BD1 it was under 0.1 µM; in the test with C-myc, at most 1 µM; on BRD4-BD2, under 0.1 µM.

Turning to `Cn1cc(-c2ccc3ncn(CCN4CCOCC4)c3c2Oc2ccccc2)c2cc[nH]c2c1=O` [Example 42, 6-Methyl-4-[1-(2-morpholin-4-ylethyl)-7-phenoxy-1H-benzimidazol-6-yl]-1,6-dihydro-7H-pyrrolo[2,3-c]pyridin-7-one], the IC50 in the test with KMS.12.BM cells is at most 1 µM; on BRD4-BD1, under 0.1 µM; in the test with C-myc it was at most 1 µM; at BRD4-BD2, under 0.1 µM.

Take `Cn1cc(-c2ccc3c(ncn3CCN3CCOCC3)c2Oc2ccccc2)c2cc[nH]c2c1=O` [Example 43, 6-methyl-4-[1-(2-morpholin-4-ylethyl)-4-phenoxy-1H-benzimidazol-5-yl]-1,6-dihydro-7H-pyrrolo[2,3-c]pyridin-7-one]: the IC50 in the test with KMS.12.BM cells is at most 1 µM; on BRD4-BD1, under 0.1 µM; in the test on C-myc, at most 1 µM; at BRD4-BD2, under 0.1 µM.

As to `Cn1cc(-c2ccc3ncn(Cc4ccccc4)c3c2Oc2ccccc2)c2cc[nH]c2c1=O` [Example 45, 4-(1-Benzyl-7-phenoxy-1H-benzimidazol-6-yl)-6-methyl-1,6-dihydro-7H-pyrrolo[2,3-c]pyridin-7-one], the 50% inhibitory concentration (IC50) with KMS.12.BM cells was at most 1 µM; on BRD4-BD1, under 0.1 µM; in the test with C-myc, at most 1 µM; at BRD4-BD2, under 0.1 µM.

As to `Cn1cc(-c2ccc3c(ncn3Cc3ccccc3)c2Oc2ccccc2)c2cc[nH]c2c1=O` [Example 46, 4-(1-Benzyl-4-phenoxy-1H-benzimidazol-5-yl)-6-methyl-1,6-dihydro-7H-pyrrolo[2,3-c]pyridin-7-one], the 50% inhibitory concentration (IC50) in the test with KMS.12.BM cells is at most 1 µM; at BRD4-BD1 it was under 0.1 µM; in the test with C-myc it was at most 1 µM; on BRD4-BD2, under 0.1 µM.

With `Cn1cc(-c2ccc3ncn(CCc4ccccc4)c3c2Oc2ccccc2)c2cc[nH]c2c1=O` [Example 47, 6-Methyl-4-[7-phenoxy-1-(2-phenylethyl)-1H-benzimidazol-6-yl]-1,6-dihydro-7H-pyrrolo[2,3-c]pyridin-7-one], the IC50 was at most 1 µM in the test with KMS.12.BM cells, under 0.1 µM at BRD4-BD1, at most 1 µM with C-myc and under 0.1 µM at BRD4-BD2.

With `Cn1cc(-c2ccc3c(ncn3CCc3ccccc3)c2Oc2ccccc2)c2cc[nH]c2c1=O` [Example 48, 6-Methyl-4-[4-phenoxy-1-(2-phenylethyl)-1H-benzimidazol-5-yl]-1,6-dihydro-7H-pyrrolo[2,3-c]pyridin-7-one], the 50% inhibitory concentration (IC50) in the test on KMS.12.BM cells was at most 1 µM; on BRD4-BD1, under 0.1 µM; in the test on C-myc, at most 1 µM; on BRD4-BD2 it was under 0.1 µM.

For `Cn1cc(-c2ccc3ncn(CCCC#N)c3c2Oc2ccccc2)c2cc[nH]c2c1=O` [Example 51, 4-[6-(6-Methyl-7-oxo-6,7-dihydro-1H-pyrrolo[2,3-c]pyridin-4-yl)-7-phenoxy-1H-benzimidazol-1-yl]butanenitrile], the IC50 in the test on KMS.12.BM cells was at most 1 µM; at BRD4-BD1, under 0.1 µM; with C-myc it was at most 1 µM; on BRD4-BD2, under 0.1 µM.

As for `Cn1cc(-c2ccc3c(ncn3CCCC#N)c2Oc2ccccc2)c2cc[nH]c2c1=O` [Example 52, 4-[5-(6-Methyl-7-oxo-6,7-dihydro-1H-pyrrolo[2,3-c]pyridin-4-yl)-4-phenoxy-1H-benzimidazol-1-yl]butanenitrile], the half-maximal inhibitory concentration (IC50) in the test on KMS.12.BM cells was at most 1 µM; at BRD4-BD1, under 0.1 µM; with C-myc, at most 1 µM; on BRD4-BD2, under 0.1 µM.

As to `COc1c(-c2cn(C)c(=O)c3[nH]ccc23)ccc2c1n(CCCC#N)c(=O)n2C` [Example 53, 4-[7-Methoxy-3-methyl-6-(6-methyl-7-oxo-6,7-dihydro-1H-pyrrolo[2,3-c]pyridin-4-yl)-2-oxo-2,3-dihydro-1H-benzimidazol-1-yl]butanenitrile], the 50% inhibitory concentration (IC50) with KMS.12.BM cells is at most 1 µM; on BRD4-BD1, 0.1 to 1 µM; in the test on C-myc it was at most 1 µM; at BRD4-BD2 it was under 0.1 µM.

For the compound `COc1c(-c2cn(C)c(=O)c3[nH]ccc23)ccc2c1n(CCC#N)c(=O)n2C` [Example 54, 3-[7-Methoxy-3-methyl-6-(6-methyl-7-oxo-6,7-dihydro-1H-pyrrolo[2,3-c]pyridin-4-yl)-2-oxo-2,3-dihydro-1H-benzimidazol-1-yl]propanenitrile], the half-maximal inhibitory concentration (IC50) was at most 1 µM in the test with KMS.12.BM cells, 0.1 to 1 µM on BRD4-BD1, at most 1 µM with C-myc and under 0.1 µM on BRD4-BD2.

As to `Cn1cc(-c2ccc3ncn(CCC#N)c3c2Oc2ccccc2)c2cc[nH]c2c1=O` [Example 55, 3-[6-(6-Methyl-7-oxo-6,7-dihydro-1H-pyrrolo[2,3-c]pyridin-4-yl)-7-phenoxy-1H-benzimidazol-1-yl]propanenitrile], the concentration for half-maximal inhibition (IC50) is at most 1 µM with KMS.12.BM cells, under 0.1 µM on BRD4-BD1, at most 1 µM in the test with C-myc and under 0.1 µM on BRD4-BD2.

For the origin of these results see US9918990B2, “Substituted pyrrolo[2,3-c]pyridines and pyrazolo[3,4-c]pyridines as BET protein inhibitors” (Incyte Corporation, priority 2013, dated 2018).
